The values below come from PubChem BioAssay (NCI).

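Growth conditions: 96-well plates. Treatment: test compound, 48 hours, 5 concentrations. Analysis: linear interpolation between bracketing concentrations; unreached endpoints set to highest concentration. Abbreviation: GI50, concentration required for 50% inhibition of growth. The concentration for full growth arrest is given as TGI.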 Bounds are passed on as bounds.

Assay in all cases: NCI-60 cell line screen, 48 h
Experiment [1] concerns CAKI-1 renal.
For experiment [2], the system named is EKVX NSCLC.
Experiment [3] concerns HL-60(TB) leukemia.
Experiment [4] deals with K-562 leukemia.
For experiment [5], the system named is MALME-3M melanoma.
For experiment [6], the system named is NCI-H23 lung.
Experiment [7] relates to OVCAR-4 ovarian.
In experiment [8] the test system is SF-268 CNS.
In experiment [9] the test system is BT-549 breast.
Experiment [10] concerns MDA-MB-435.

With `CC(C)(C)c1ccnc(N=C2N=C(Nc3cc(C(C)(C)C)ccn3)c3ccccc32)c1`, the TGI is 53.1 µM in [1]; greater than 100 µM in [2]; greater than 100 µM in [3]; greater than 100 µM in experiment [4]; 63.7 µM in experiment [5]; 94.6 µM in experiment [6]. In addition, the figures for the TGI in experiment [7] and in experiment [8] were greater than 100 µM and 37.9 µM, respectively.

Regarding `C=C1[C@@H]2CCC3[C@]4(C)C(CC[C@@]5(C)C(=O)O[C@H](O)[C@@H]45)[C@H](O)[C@]3(C2)[C@H]1OC1OC(CO)C(O)C(O)C1O` (some centres undefined), the TGI in experiment [9], in experiment [2], in experiment [3], in experiment [4], in [5] and in experiment [6] was greater than 50 µM throughout. Further, the TGI in [7] and in experiment [8] was greater than 50 µM throughout.

For `O=C1CSC(c2c[nH]c3ccccc23)N1c1ccc(Cl)cc1Cl` (centres undefined), the TGI in experiment [9], in [2], in [3], in experiment [4], in experiment [6] and in [7] was greater than 100 µM each time. Further, the TGI in experiment [8] was greater than 100 µM.

Regarding `CC(C)=CCC[C@@H](C)C1=C(Nc2ccccc2F)C(O)=C(C)C(=O)C1=O`, the TGI in experiment [9] was greater than 100 µM; in experiment [1], 34.2 µM; in experiment [2] it was greater than 100 µM; in experiment [4], greater than 100 µM; in [5], 29.5 µM; in experiment [10] it was greater than 100 µM. Further, the TGI in experiment [6] was 36.1 µM; in experiment [7], greater than 100 µM; in [8], greater than 100 µM.

For `Oc1ccccc1/C=N/N1C(=S)N(C23CC4CC(CC(C4)C2)C3)C(=Nc2ccccc2)C1=Nc1ccccc1`, the TGI in experiment [9], in experiment [1], in [2], in experiment [4], in experiment [5] and in [10] was greater than 100 µM each time. For the same molecule, the TGI in experiment [6] and in [8] was greater than 100 µM throughout.

In the case of `O=[N+]([O-])c1ccc(-c2csc(=[N+]3CCCCC3)s2)cc1`, the TGI in experiment [1] is greater than 100 µM; in experiment [2] it was greater than 100 µM; in [3], greater than 86.6 µM; in experiment [4], greater than 100 µM; in experiment [5], 32.1 µM; in [6], 22.8 µM. In addition, the TGI in experiment [7] is 81.4 µM; in experiment [8], greater than 100 µM.

In the case of `O=C(c1ccco1)N(C(=O)N1CCC(c2ccccc2)CC1)c1ccccc1`, the TGI in experiment [9] was greater than 100 µM; in [1], greater than 100 µM; in experiment [2] it was greater than 100 µM; in experiment [3], 65.9 µM; in [4], greater than 100 µM; in experiment [5], greater than 100 µM. Besides, the TGI in experiment [10], in experiment [6] and in [8] was greater than 100 µM in each case.

On to `CC(C)=C/C(CC(O)(C(F)(F)F)C(F)(F)F)=N\O`, for which the TGI in experiment [2], in experiment [3], in [4], in [5], in experiment [10] and in experiment [6] was greater than 100 µM each time. Moreover, the TGI in [7] and in [8] was greater than 100 µM in each case.

Consider `COc1cc2c(cc1OCc1ccccc1)NC(=O)[C@@H]1CCCN1C2=O`, for which the TGI in experiment [9], in experiment [1], in experiment [2], in experiment [4], in [5] and in experiment [10] was greater than 100 µM each time. Further, the TGI in experiment [6], in [7] and in [8] was greater than 100 µM each time.

With `O=C1c2cc3c(cc2CC12Cc1ccc4c(c1C2=O)CCC4)CCC3` (centres undefined), the TGI in experiment [1], in experiment [2], in [3], in experiment [4], in experiment [5] and in experiment [10] was greater than 100 µM in each case. For the same molecule, the TGI in experiment [6], in [7] and in experiment [8] was greater than 100 µM throughout.

Consider `NCCCCNCCCN1CCOC1=O`, for which the TGI in experiment [9], in experiment [1], in experiment [2], in experiment [3], in [4] and in [5] was greater than 100 µM throughout. Also, the TGI in [10], in [6] and in experiment [8] was greater than 100 µM each time.

For the molecule `Cc1nc2c(=O)n(-c3ccccc3)c(=O)n(-c3ccccc3)c2o1`, the TGI in experiment [9], in [1], in experiment [2], in [4], in experiment [5] and in experiment [10] was greater than 100 µM in each case. The TGI in experiment [6], in experiment [7] and in experiment [8] was greater than 100 µM throughout.

For `C=C1C[C@@H]2O[C@H]3[C@H]4[C@@H](C[C@@H](C)[C@@H](OC(C)=O)[C@H]42)[C@@H](C)CO[C@@]3(C)[C@H](OC(=O)CCCCCCC)CC1=O`, the TGI in experiment [9] came to 36.9 µM; in [1], 33.5 µM; in [2] it was 32.9 µM; in [10] it was 30.8 µM; in experiment [6] it was 40.1 µM; in [8] it was 36.9 µM.

In the case of `CCCCNC(=O)Cn1c2ccc(Br)cc2c2nc3ccccc3nc21`, the TGI in experiment [1], in [4], in experiment [10], in experiment [6] and in experiment [8] was greater than 100 µM in each case.

As to `CCOC(=O)/C=C/CCC(C)(C)COC(C)=O`, the TGI in experiment [1], in experiment [2], in experiment [3], in experiment [4], in [10] and in experiment [6] was greater than 10 µM throughout. Moreover, the TGI in experiment [7] and in experiment [8] was greater than 10 µM throughout.

Regarding `C[As+](C)(c1ccc(Br)c([N+](=O)[O-])c1)c1ccc(Br)c([N+](=O)[O-])c1.O=[N+]([O-])O`, the TGI was greater than 100 µM in experiment [9]; greater than 100 µM in experiment [1]; greater than 100 µM in [2]; greater than 100 µM in experiment [4]; 34.1 µM in experiment [5]; greater than 100 µM in experiment [10]. Besides, the TGI in experiment [6], in [7] and in [8] was greater than 100 µM in each case.

With `N#CCCN(CCC#N)c1ccc(C(N=Nc2ccccc2)=Nc2ccc(F)cc2)cc1`, the TGI in experiment [9], in experiment [1], in experiment [2], in experiment [4], in experiment [10] and in experiment [6] was greater than 100 µM each time. The TGI in experiment [7] and in experiment [8] was greater than 100 µM throughout.

`CC(=O)/C(=N\Nc1ccc(Cl)cc1)C(C)=Nc1ccc(C)cc1`: the TGI in experiment [9] was greater than 100 µM; in [1], greater than 100 µM; in experiment [2], greater than 100 µM; in experiment [4] it was greater than 100 µM; in experiment [5], 59.2 µM; in [10], greater than 100 µM. The TGI in experiment [6], in experiment [7] and in experiment [8] was greater than 100 µM each time.

For the molecule `N#C/C(C(=O)NCc1ccccc1)=C(/N)N1CCCC1`, the TGI in experiment [1], in [2], in [3], in [4], in [5] and in [10] was greater than 100 µM each time. Further, the TGI in [6], in experiment [7] and in [8] was greater than 100 µM each time.

As to `COc1ccc(C2c3cc4c(cc3OC(Nc3ccccc3)C2C)OCO4)cc1` (centres undefined), the TGI in experiment [9] was greater than 100 µM; in experiment [1], greater than 100 µM; in [2], 98.7 µM; in experiment [3], 59.3 µM; in [4], greater than 100 µM; in [5], greater than 100 µM. The TGI in [10], in [6] and in [8] was greater than 100 µM in each case.

For `CC[C@]12C=CCN3CCC4(c5cc([C@@]6(C(=O)OC)CC7CN(CCc8c6[nH]c6ccccc86)CC6CCCCC67)c(OC)cc5N(C)C4[C@](O)(C(=O)OC)C1OC(C)=O)[C@@H]32` (some centres undefined), the TGI in experiment [1] was 12 µM; in [2] it was 21.7 µM; in [3], greater than 100 µM; in experiment [4], greater than 21.7 µM; in [5] it was 7.05 µM; in experiment [10], less than 0.01 µM. The TGI in experiment [6] is less than 0.01 µM; in experiment [7] it was 18.3 µM; in [8] it was 1.47 µM.

For `CC(=N/NC(=S)N(C)C)/C(=N\NC(=S)N(C)C)c1ccccc1`, the TGI in [9] was 4.63 µM; in experiment [1], 6.96 µM; in [2], 3.56 µM; in [4], greater than 100 µM; in experiment [5] it was 3.5 µM; in [10], 3.56 µM. In addition, the TGI in experiment [7] came out at 3.74 µM; in experiment [8], 4.84 µM.

Turning to `O=C1c2cc3c(cc2-c2c1c1ccc(Cl)cc1c(=O)n2CCCn1ccnc1)OCO3`, the GI50 in experiment [9] is 0.0491 µM; in [1] it was less than 0.01 µM; in [2] it was 0.117 µM; in experiment [3], less than 0.01 µM; in experiment [4], 0.0229 µM; in experiment [5], 0.0647 µM. The GI50 in experiment [6] was less than 0.01 µM; in experiment [7] it was 0.0525 µM; in experiment [8], less than 0.01 µM. For the same molecule, the TGI in experiment [9] is greater than 100 µM; in experiment [1] it was greater than 100 µM; in experiment [2], greater than 100 µM; in [3] it was 1.93 µM; in [4], 12.6 µM; in experiment [5], greater than 100 µM. The figures for the TGI in [6], in experiment [7] and in [8] were 0.317 µM, greater than 100 µM and greater than 100 µM, respectively.

`Nc1c(N2CCOCC2)c(=O)nc2[nH]/c(=C\c3ccccc3O)c(=O)n12`: the TGI in [1], in experiment [2], in experiment [3], in experiment [4], in [5] and in experiment [10] was greater than 100 µM in each case. The TGI in experiment [6], in [7] and in experiment [8] was greater than 100 µM in each case.

Turning to `O=C1CC[C@@]23CC(=O)O[C@@H]2CCCC3C1` (some centres undefined), the TGI in experiment [9], in experiment [1], in experiment [2], in experiment [3], in experiment [4] and in experiment [5] was greater than 100 µM each time. For the same molecule, the TGI in [6], in experiment [7] and in [8] was greater than 100 µM throughout.

For `CN(C)CCCNC(=O)N/N=C/c1ccccc1`, the TGI in experiment [3], in experiment [4], in experiment [5] and in [8] was greater than 100 µM each time.

Regarding `OC(CC(O)(C(F)(F)Cl)C(F)(F)Cl)c1ccccc1` (centres undefined), the TGI in experiment [9], in [1], in [2], in experiment [3], in experiment [4] and in [5] was greater than 10 µM in each case. In addition, the TGI in [6], in experiment [7] and in [8] was greater than 10 µM each time.

`O=C(NC(C(F)(F)F)(C(F)(F)F)P(=O)(Cc1ccccc1)Cc1ccccc1)C(C(F)(F)F)C(F)(F)F`: the TGI in [1] was 97.1 µM; in [2] it was 58.9 µM; in [3], 71.3 µM; in [4], greater than 100 µM; in experiment [5], 47.1 µM; in experiment [10] it was 34.3 µM. In addition, the TGI stood at 40.8 µM in experiment [6] and 59.4 µM in experiment [8].

On to `CCOC(=O)c1c(SCc2cc(=O)[nH]c(=O)[nH]2)n(-c2ccccc2)c(=S)n(-c2ccccc2)c1=O`, for which the TGI in experiment [9], in [1], in [2], in [4], in experiment [5] and in [10] was greater than 100 µM throughout. The TGI in experiment [8] was greater than 100 µM.

As for `CN1c2ccccc2C2=C(c3ccccc3)CC[C@@H](C(=O)N3C4CC5CC[C@@]4(CS3(=O)=O)C5(C)C)[C@@H]21` (some centres undefined), the TGI in experiment [9], in experiment [1], in experiment [2], in experiment [4], in experiment [5] and in [10] was greater than 100 µM throughout. Moreover, the TGI in experiment [6], in [7] and in experiment [8] was greater than 100 µM in each case.
